Data from US20090064375A1, “Paraquat Resistance Gene and a Vascular Tissue- and Trichome-specific Promoter” (priority 2003, published 2009).

System: non-transformant (wild-type Arabidopsis thaliana ecotype Col-0)
Experiment: Evaluation of paraquat resistance: growth of germinated individuals in paraquat-containing ½ MS medium, non-transformant
Format: in vivo
Conditions: 3 μM of paraquat in ½ MS agar medium, cultured for eight days at 22° C., FIG. 2C
Experimental: Seeds derived from the produced AtMVR gene transformant and non-transformant (wild-type Arabidopsis thaliana ecotype Col-0) were sterilely inoculated in ½ MS agar (1%) medium (2.3 g/l of Murashige and Skoog Plant Salt Mixture (Wako Pure Chemical Industries Ltd.), 1.5 mg/l of thiamine hydrochloride, 2.5 mg/l of nicotinic acid, 0.25 mg/l of pyridoxine hydrochloride, 1.5% of sucrose) containing 3 μM of paraquat (methyl viologen (Sigma Chemical Co.)), and cultured for eight days at 22° C. under irradiation of light of 60 μmol/m^2/s (cycle of 16 hrs photoperiod/8 hrs dark period). After culture, the growth of germinated individuals was evaluated. The results are shown in FIG. 2, wherein FIG. 2B is a photograph showing growth of an AtMVR gene transformant and a non-transformant in a ½ MS culture medium without paraquat, and FIG. 2C is a photograph showing growth of an AtMVR gene transformant and a non-transformant in a ½ MS culture medium with paraquat. FIG. 2A is a schematic diagram showing the location of the AtMVR gene transformant and the non-transformant in FIGS. 2B and 2C.

Compound: C[n+]1ccc(-c2cc[n+](C)cc2)cc1 [paraquat]
- growth of germinated individuals in a medium containing paraquat: developed chlorosis and died
